Data published in patent publication US11427548B2 (Arvinas Operations, Inc., priority 2015, dated 2022).
Where two headings read alike, the source gives them in different places.

Assays:
[1] = PROTAC prodrug oral pharmacokinetics in CD-1 mice; assay type: in vivo; conditions: male, mouse, plasma, 10 mg/kg, 10 mpk PO; for AUC: read-out: Plasma Exposure Prodrug AUC; for Cmax: read-out: Plasma Exposure Prodrug Cmax
Procedure: (§1) 9. PROTAC Prodrug Oral Pharmacokinetics and PROTAC Subcutaneous Phamacokinetics.
(§2) Representative Pharmacokinetic Procedure
(§3) Male CD-1 mice (6-8 weeks old, weighing 20-30 g, 3 per study) with free access to food and water were administered with the test article at 10 mg/kg either by oral gavage or sub-cutaneous injection in the formulation specified in tables 20 and 21, at 10 mL/kg.
(§4) Approximately 0.04 mL blood samples were collected from the dorsal metatarsal vein serially at 0.25, 0.5, 1, 2, 4, 8 and 24 h timepoints; heparin was used as the anticoagulant. The samples were centrifuged at 4000 g for 5 min at 4° C. then stored at −75° C. prior to analysis.
(§5) The plasma samples were analysed via an LC/MS/MS method quantitating for unchanged, administered test article, and/or a derivative species as appropriate. WinNonlin (Phoenix™) was used for the pharmacokinetic calculations and modeling, to generate parameters such as Cmax and AUC.

Androgen Receptor [2] = target: T1, Androgen Receptor (Homo sapiens, UniProt P10275); assay: Androgen Receptor ELISA assay (PathScan AR ELISA) in VCaP cells: AR degradation, Dmax and DC50; assay type: cell-based; conditions: for DC50: read-out: VCaP DC50; for Dmax: VCaP, read-out: VCaP Dmax (%)
T1 construct: endogenous in cells; host or cells: VCaP cells
T1 sequence (P10275 1-920): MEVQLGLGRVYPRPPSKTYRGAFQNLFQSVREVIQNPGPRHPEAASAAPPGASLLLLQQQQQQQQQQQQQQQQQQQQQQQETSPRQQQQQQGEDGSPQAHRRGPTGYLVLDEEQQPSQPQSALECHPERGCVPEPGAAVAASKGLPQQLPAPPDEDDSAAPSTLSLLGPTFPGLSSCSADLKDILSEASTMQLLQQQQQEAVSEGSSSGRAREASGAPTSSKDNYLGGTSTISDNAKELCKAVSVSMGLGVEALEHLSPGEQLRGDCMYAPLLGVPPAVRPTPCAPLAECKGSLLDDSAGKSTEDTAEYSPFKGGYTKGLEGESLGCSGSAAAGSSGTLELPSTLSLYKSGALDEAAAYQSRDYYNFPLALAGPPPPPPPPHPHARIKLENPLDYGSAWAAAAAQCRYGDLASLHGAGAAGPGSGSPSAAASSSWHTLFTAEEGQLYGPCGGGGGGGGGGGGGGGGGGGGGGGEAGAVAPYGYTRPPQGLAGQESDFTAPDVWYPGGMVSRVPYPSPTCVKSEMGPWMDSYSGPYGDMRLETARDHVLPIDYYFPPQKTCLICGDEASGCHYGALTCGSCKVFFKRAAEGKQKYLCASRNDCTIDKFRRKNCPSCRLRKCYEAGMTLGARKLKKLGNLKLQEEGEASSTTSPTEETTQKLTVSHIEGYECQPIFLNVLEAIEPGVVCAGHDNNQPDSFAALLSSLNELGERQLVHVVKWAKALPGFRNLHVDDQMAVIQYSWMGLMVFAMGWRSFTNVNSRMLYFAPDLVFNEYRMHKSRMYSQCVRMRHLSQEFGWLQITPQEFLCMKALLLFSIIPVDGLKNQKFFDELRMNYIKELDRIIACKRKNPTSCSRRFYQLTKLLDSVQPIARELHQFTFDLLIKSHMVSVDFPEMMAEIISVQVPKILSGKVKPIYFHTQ
Procedure, shortened: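 VCaP cells in phenol red-free RPMI with 5% charcoal-stripped FBS were grown at least 3 days, then given compound as 7 half-log doses in 0.1% DMSO with 0.1 nM R1881 for 24 h. Lysates went into a sandwich AR ELISA with TMB read at 450 nm.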

VCaP cells = assay: VCaP cell proliferation assay (Cell Titer Glo), GI50; assay type: cell-based; conditions: for GI50: Homo sapiens, VCaP cells, 0.1 nM R1881, Table 37, read-out: GI50, Inhibition of VCaP Proliferation
Procedure, shortened: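 VCaP cells at 7,500/well were androgen-depleted for at least 3 days in phenol red-free RPMI with 5% charcoal-stripped FBS, then dosed with PROTACs plus 0.1 nM R1881. Growth was read by CellTiter Glo luminescence against a baseline taken on the day of dosing, giving GI50.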

[3] = PROTAC subcutaneous pharmacokinetics in CD-1 mice; assay type: in vivo; conditions: male, plasma, CD-1 Mouse, 10 mg/kg SC dose; for AUC(0-t): read-out: Plasma Exposure AUC0-24; for Cmax: read-out: Plasma Exposure Cmax
Procedure: as §1, §2, §3, §4, §5

VCaP xenograft = assay: Tumor growth inhibition in VCaP xenograft model; assay type: in vivo; conditions: VCaP cells s.c. in castrated CB17 scid mice; enzalutamide PO, QD, 30 mpk; Example 163 IP, QD, 30, 10 and 3 mpk
Excerpt: FIG. 6. Tumor growth inhibition in VCaP xenograft model. VCaP cells were implanted into CB17 scid mice subcutaneously. Once the tumors were palpable, the mice were castrated, leading to temporary tumor stasis.
7. Tumor Growth Inhibition in VCaP Xenograft Model.
VCaP cells were implanted into CB17 scid mice subcutaneously. Once the tumors were palpable, the mice were castrated, leading to temporary tumor stasis.

Androgen Receptor [4] = target: T2, Androgen Receptor (Homo sapiens, UniProt P10275+P40337, T878A); assay: Androgen Receptor ELISA assay (PathScan AR ELISA) in LNCaP cells: AR degradation, Dmax and DC50; assay type: cell-based
T2 construct: Compounds have been evaluated in this assay in LNCaP and/or VCaP cells utilizing similar protocols; endogenous in cells; host or cells: LNCaP cells
T2 sequence (P10275 whole entry T878A): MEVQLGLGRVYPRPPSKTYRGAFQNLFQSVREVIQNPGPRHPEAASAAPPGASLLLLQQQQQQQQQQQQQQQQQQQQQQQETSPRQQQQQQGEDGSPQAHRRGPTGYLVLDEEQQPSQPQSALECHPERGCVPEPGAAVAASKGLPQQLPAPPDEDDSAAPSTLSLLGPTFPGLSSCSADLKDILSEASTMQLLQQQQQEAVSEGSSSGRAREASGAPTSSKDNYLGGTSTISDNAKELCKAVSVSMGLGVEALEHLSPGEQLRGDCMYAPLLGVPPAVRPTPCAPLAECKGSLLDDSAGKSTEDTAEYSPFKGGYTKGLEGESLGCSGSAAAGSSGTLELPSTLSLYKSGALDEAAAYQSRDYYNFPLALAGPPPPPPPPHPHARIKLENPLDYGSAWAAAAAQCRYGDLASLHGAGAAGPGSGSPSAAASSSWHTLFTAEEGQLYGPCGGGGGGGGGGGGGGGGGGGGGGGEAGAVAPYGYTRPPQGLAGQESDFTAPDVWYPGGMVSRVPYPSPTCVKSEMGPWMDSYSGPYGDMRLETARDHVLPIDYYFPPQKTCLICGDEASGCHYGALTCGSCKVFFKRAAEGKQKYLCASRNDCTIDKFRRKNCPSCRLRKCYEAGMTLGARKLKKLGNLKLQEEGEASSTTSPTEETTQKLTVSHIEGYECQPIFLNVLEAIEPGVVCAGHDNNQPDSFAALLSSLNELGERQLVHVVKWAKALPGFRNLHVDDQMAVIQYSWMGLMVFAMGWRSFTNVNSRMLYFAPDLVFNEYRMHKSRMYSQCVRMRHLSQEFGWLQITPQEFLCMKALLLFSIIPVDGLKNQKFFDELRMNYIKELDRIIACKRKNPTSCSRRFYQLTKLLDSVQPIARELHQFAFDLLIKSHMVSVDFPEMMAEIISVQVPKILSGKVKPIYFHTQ
T2 sequence (P40337 whole entry): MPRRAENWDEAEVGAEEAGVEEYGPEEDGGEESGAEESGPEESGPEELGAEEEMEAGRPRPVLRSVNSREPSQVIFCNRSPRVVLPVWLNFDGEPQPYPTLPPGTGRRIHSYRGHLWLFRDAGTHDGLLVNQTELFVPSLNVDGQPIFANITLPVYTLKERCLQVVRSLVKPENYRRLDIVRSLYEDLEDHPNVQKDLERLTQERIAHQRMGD
T2 sequence (Q15369 whole entry partner): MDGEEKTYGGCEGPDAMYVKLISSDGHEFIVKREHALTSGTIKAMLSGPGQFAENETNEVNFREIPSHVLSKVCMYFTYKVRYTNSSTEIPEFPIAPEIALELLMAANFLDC
T2 sequence (Q15370 whole entry partner): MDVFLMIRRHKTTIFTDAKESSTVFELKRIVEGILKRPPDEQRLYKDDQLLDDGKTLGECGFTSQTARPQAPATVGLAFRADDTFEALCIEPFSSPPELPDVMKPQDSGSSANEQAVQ

[5] = vehicle ESP-4, prodrug measured
[6] = vehicle ESD-4, prodrug measured
[7] = highest percentage of Androgen Receptor degradation observed, VCaP cells (Table 32)
[8] = concentration that caused 50% Androgen Receptor degradation, VCaP cells (Table 32)

Structure (SMILES) | AUC [1, 5] [ng·h/mL] | Cmax [1, 5] [ng/mL] | DC50 (Androgen Receptor [2]; VCaP cells, Table 35) [nM] | Dmax (Androgen Receptor [2]; VCaP cells, Table 35) [%] | GI50 (VCaP cells) [nM] | Dmax (Androgen Receptor [2]; [7]) [%] | other results
Cc1ncsc1-c1ccc([C@H](C)NC(=O)[C@@H]2C[C@@H](O)CN2C(=O)[C@@H](NC(=O)COCCCCCNc2ccc(C(=O)N[C@H]3C(C)(C)[C@H](Oc4ccc(C#N)c(C(F)(F)F)n4)C3(C)C)cc2)C(C)(C)C)cc1 [Example 464] | 118 | 48 | > 501 | > 71 | – | – | –
CNC(=O)c1ccc(N2C(=S)N(c3ccc(C#N)c(C(F)(F)F)c3)C(=O)C2(C)C)cc1F [enzalutamide, reference compound] | – | – | – | – | – | – | anti-proliferative activity (VCaP cells; LNCap and VCaP cell systems, increasing concentrations of AR agonist R1881 and cells containing the AR F876L mutation): inactive; Tumor growth inhibition (VCaP xenograft): Tumor growth inhibition was observed
Cc1ncsc1-c1ccc(CNC(=O)[C@@H]2C[C@@H](O)CN2C(=O)[C@@H](NC(=O)COCCCOCCN2CCC(c3ccc(N4C(=S)N(c5ccc(C#N)c(C(F)(F)F)c5)C(=O)C4(C)C)cc3)CC2)C(C)(C)C)cc1 [Example 80, (2S,4R)-1-((S)-2-(2-(3-(2-(4-(4-(3-(4-cyano-3-(trifluoromethyl)phenyl)-5,5-dimethyl-4-oxo-2-thioxoimidazolidin-1-yl)phenyl)piperidin-1-yl)ethoxy)propoxy)acetamido)-3,3-dimethylbutanoyl)-4-hydroxy-N-(4-(4-methylthiazol-5-yl)benzyl)pyrrolidine-2-carboxamide] | – | – | – | – | – | – | DC50 (Androgen Receptor [4]; concentration that caused 50% Androgen Receptor degradation): > 501 nM; Dmax (Androgen Receptor [4]; highest percentage of Androgen Receptor degradation observed): 51 to 70%; Dmax (Androgen Receptor [2]): 26 to 50%; AUC(0-t) ([3]; vehicle ELP-1): 2530 ng·h/mL; Cmax ([3]; vehicle ELP-1): 180 ng/mL
Cc1ncsc1-c1ccc([C@H](C)NC(=O)[C@@H]2C[C@@H](OC(=O)[C@@H](N)C(C)C)CN2C(=O)[C@@H](NC(=O)COCCCCCNc2ccc(C(=O)N[C@H]3C(C)(C)[C@H](Oc4ccc(C#N)c(Cl)c4)C3(C)C)cc2)C(C)(C)C)cc1 [Example 463] | 49 | 12 | – | – | – | – | –

The next lines start with results.

AUC [1, 5] [ng·h/mL] | Cmax [1, 5] [ng/mL] | DC50 (Androgen Receptor [2]; VCaP cells, Table 35) [nM] | Dmax (Androgen Receptor [2]; VCaP cells, Table 35) [%] | GI50 (VCaP cells) [nM] | Dmax (Androgen Receptor [2]; [7]) [%] | Structure (SMILES) | other results
469 | 346 | < 50 | > 71 | – | – | Cc1ncsc1-c1ccc([C@H](CN(C)C)NC(=O)[C@@H]2C[C@@H](O)CN2C(=O)[C@@H](NC(=O)COCCCCCOc2ccc(C(=O)N[C@H]3C(C)(C)[C@H](Oc4ccc(C#N)c(Cl)c4)C3(C)C)cc2)C(C)(C)C)cc1 [Example 470] | –
– | – | < 50 | > 71 | – | – | CC(=O)O[C@@H]1C[C@@H](C(=O)N[C@@H](C)c2ccc(-c3scnc3C)cc2)N(C(=O)[C@@H](NC(=O)COCCCCCNc2ccc(C(=O)N[C@H]3C(C)(C)[C@H](Oc4ccc(C#N)c(Cl)c4)C3(C)C)cc2)C(C)(C)C)C1 [Example 469] | AUC [1, 6]: 353 ng·h/mL; Cmax [1, 6]: 181 ng/mL
– | – | – | – | ≤ 50 | > 71 | Cc1ncsc1-c1ccc([C@H](C)NC(=O)[C@@H]2C[C@@H](O)CN2C(=O)[C@@H](NC(=O)COCCCCCNc2ccc(C(=O)N[C@H]3C(C)(C)[C@H](Oc4ccc(C#N)c(Cl)c4)C3(C)C)cc2)C(C)(C)C)cc1 [Example 174, (2S,4R)-1-[(2S)-3,3-dimethyl-2-[2-({5-[(4-{[trans-3-(3-chloro-4-cyanophenoxy)-2,2,4,4-tetramethylcyclobutyl]carbamoyl}phenyl)amino]pentyl}oxy)acetamido]butanoyl]-4-hydroxy-N-[(1S)-1-[4-(4-methyl-1,3-thiazol-5-yl)phenyl]ethyl]pyrrolidine-2-carboxamide] | DC50 (Androgen Receptor [2]; [8]): < 50 nM; AUC(0-t) ([3]; vehicle ESD-1): 35100 ng·h/mL; Cmax ([3]; vehicle ESD-1): 1900 ng/mL
– | – | – | – | ≤ 50 | > 71 | CC(C)(C)[C@H](NC(=O)COCCCCCOc1ccc(C(=O)N[C@H]2C(C)(C)[C@H](Oc3ccc(C#N)c(Cl)c3)C2(C)C)cc1)C(=O)N1C[C@H](O)C[C@H]1C(=O)NCc1ccc(-c2cncs2)cc1 [Example 150, (2S,4R)-1-[(2S)-3,3-dimethyl-2-(2-{[5-(4-{[trans-3-(3-chloro-4-cyanophenoxy)-2,2,4,4-tetramethylcyclobutyl]carbamoyl}phen-oxy)pentyl]oxy}acetamido)butanoyl]-4-hydroxy-N-{[4-(1,3-thiazol-5-yl)phenyl]methyl}pyrrolidine-2-carboxamide] | DC50 (Androgen Receptor [2]; [8]): < 50 nM; AUC(0-t) ([3]; vehicle ESD-1): 40200 ng·h/mL; Cmax ([3]; vehicle ESD-1): 2750 ng/mL
– | – | – | – | ≤ 50 | > 71 | Cc1ncsc1-c1ccc(CNC(=O)[C@@H]2C[C@@H](O)CN2C(=O)[C@@H](NC(=O)COCCOc2ccc(-c3ccc(C(=O)N[C@H]4C(C)(C)[C@H](Oc5ccc(C#N)c(Cl)c5)C4(C)C)cc3)cc2)C(C)(C)C)cc1 [Example 182, (2S,4R)-1-[(2S)-3,3-dimethyl-2-(2-{2-[4-(4-{[trans-3-(3-chloro-4-cyanophenoxy)-2,2,4,4-tetramethylcyclobutyl]carbamoyl}phenyl)phenoxy]ethoxy}acetamido)butanoyl]-4-hydroxy-N-{[4-(4-methyl-1,3-thiazol-5-yl)phenyl]methyl}pyrrolidine-2-carboxamide] | AUC(0-t) ([3]; vehicle ELP-1): 29200 ng·h/mL; Cmax ([3]; vehicle ELP-1): 1530 ng/mL
